The target of one data set is Endochitinase B1 (Aspergillus fumigatus, UniProt Q873X9). Briefly: Inhibitory activity against Chitinase B1 (AfChiB1) using fuorometric assay with 4-methylumbelliferyl-b-D-N,N0-diacetylchitobiose as substrate.
Data set [1] in a line: Maximum rate of metabolism of compound. Type of data set: ADME. As to conditions: aspergillus fumigatus.
For data set [2], the system named is CNC(=O)NC(=N)NCCC[C@@H]1NC(=O)[C@@H](C)NC(=O)C[C@@H](C(=O)O)NC(=O)C[C@@H](C(=O)O)NC(=O)[C@H](Cc2ccccc2)N(C)C1=O. Briefly: Michaelis constant for compound binding to Chitinase B1. To be noted: Aspergillus fumigatus.

Consider `CNC(=O)NC(=N)NCCC[C@@H]1NC(=O)[C@@H](C)NC(=O)C[C@@H](C(=O)O)NC(=O)C[C@@H](C(=O)O)NC(=O)[C@H](Cc2ccccc2)N(C)C1=O` [ARGIFIN], for which the Ki on Endochitinase B1 was 0.017 µM. Moreover, the Vmax in data set [1] amounted to 2.7 nM/s. Turning to “Endochitinase B1 (Aspergillus fumigatus) (from UniProt Q873X9)”, the Km in data set [2] came out at 10.4 µM.

The values are drawn from ChEMBL document CHEMBL1143458, “An efficient synthesis of argifin: a natural product chitinase inhibitor with chemotherapeutic potential” (Bioorg Med Chem Lett, 2005).
